# Results from PMC7881117 (Nature Communications, 2021).
# Biological target: T1, p53 (Homo sapiens, UniProt P04637)
# T1 construct: gene TP53
# Assay: SPR with immobilized p53; also STD NMR, […]-13C NCO NMR titration, SAXS and AUC with NTD
# Assay type: binding
# T1 sequence (P04637 whole entry): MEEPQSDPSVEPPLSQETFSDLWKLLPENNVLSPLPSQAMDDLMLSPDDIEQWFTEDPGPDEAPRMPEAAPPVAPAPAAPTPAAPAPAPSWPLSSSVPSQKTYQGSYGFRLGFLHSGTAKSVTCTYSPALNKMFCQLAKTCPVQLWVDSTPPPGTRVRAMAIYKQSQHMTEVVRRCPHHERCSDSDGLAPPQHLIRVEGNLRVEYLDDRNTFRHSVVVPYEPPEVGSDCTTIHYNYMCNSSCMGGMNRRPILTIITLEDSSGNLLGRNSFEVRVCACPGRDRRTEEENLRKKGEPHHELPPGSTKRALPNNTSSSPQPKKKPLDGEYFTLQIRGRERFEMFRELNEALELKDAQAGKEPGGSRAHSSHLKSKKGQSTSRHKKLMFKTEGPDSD
smiles,measurement,value
"O=C(O[C@@H]1Cc2c(O)cc(O)cc2O[C@@H]1c1cc(O)c(O)c(O)c1)c1cc(O)c(O)c(O)c1 [EGCG, Epigallocatechin gallate]",Kd,1600 ± 1400 nM
